Experimental data taken from patent publication US20060035961A1, “Cyclopentane heptan(ENE)OIC acid, 2-heteroarylalkenyl derivatives as therapeutic agents” (ALLERGAN, INC., priority 2004, published 2006).

Legend:
Format in all cases: cell-based
hEP4/Gqs5 = target: T1, hEP4/Gqs5 (Homo sapiens, UniProt P35408); experiment: FLIPR calcium signal study, hEP4/Gqs5; details: HEK-293(EBNA) cells expressing recombinant human receptor, read-out: HEP4 functional data
T1 construct: expressed in transfected cells; host or cells: HEK-293(EBNA)
Protocol: (§1) Methods for FLIPR™ Studies (a) Cell Culture
(§2) HEK-293(EBNA) cells, stably expressing one type or subtype of recombinant human prostaglandin receptors (prostaglandin receptors expressed: hDP/Gqs5; hEP1; hEP2/Gqs5; hEP3A/Gqi5; hEP4/Gqs5; hFP; hIP; hTP), were cultured in 100 mm culture dishes in high-glucose DMEM medium containing 10% fetal bovine serum, 2 mM 1-glutamine, 250 μg/ml geneticin (G418) and 200 μg/ml hygromycin B as selection markers, and 100 units/ml penicillin G, 100 μg/ml streptomycin and 0.25 μg/ml amphotericin B.
(§3) (b) Calcium Signal Studies on the FLIPR™
(§4) Cells were seeded at a density of 5×10^4 cells per well in Biocoat® Poly-D-lysine-coated black-wall, clear-bottom 96-well plates (Becton-Dickinson) and allowed to attach overnight in an incubator at 37° C. Cells were then washed two times with HBSS-HEPES buffer (Hanks Balanced Salt Solution without bicarbonate and phenol red, 20 mM HEPES, pH 7.4) using a Denley Cellwash plate washer (Labsystems). After 45 minutes of dye-loading in the dark, using the calcium-sensitive dye Fluo-4 AM at a final concentration of 2 μM, plates were washed four times with HBSS-HEPES buffer to remove excess dye leaving 100 μl in each well. Plates were re-equilibrated to 37° C. for a few minutes.
(§5) Cells were excited with an Argon laser at 488 nm, and emission was measured through a 510-570 nm bandwidth emission filter (FLIPR™, Molecular Devices, Sunnyvale, Calif.). Drug solution was added in a 50 μl volume to each well to give the desired final concentration. The peak increase in fluorescence intensity was recorded for each well. On each plate, four wells each served as negative (HBSS-HEPES buffer) and positive controls (standard agonists: BW245C (hDP); PGE2 (hEP1; hEP2/Gqs5; hEP3A/Gqi5; hEP4/Gqs5); PGF2, (hFP); carbacyclin (hIP); U-46619 (hTP), depending on receptor). The peak fluorescence change in each drug-containing well was then expressed relative to the controls.
(§6) Compounds were tested in a high-throughput (HTS) or concentration-response (CoRe) format. In the HTS format, forty-four compounds per plate were examined in duplicates at a concentration of 10^−5 M. To generate concentration-response curves, four compounds per plate were tested in duplicates in a concentration range between 10^−5 and 10^−11 M. The duplicate values were averaged. In either, HTS or CoRe format each compound was tested on at least 3 separate plates using cells from different passages to give an n≧3.

hTP = target: T2, hTP (Homo sapiens, UniProt P21731); experiment: FLIPR calcium signal study, hTP; details: HEK-293(EBNA) cells expressing recombinant human receptor, read-out: HTP functional data
T2 construct: expressed in transfected cells; host or cells: HEK-293(EBNA)
T2 sequence (P21731 1-343): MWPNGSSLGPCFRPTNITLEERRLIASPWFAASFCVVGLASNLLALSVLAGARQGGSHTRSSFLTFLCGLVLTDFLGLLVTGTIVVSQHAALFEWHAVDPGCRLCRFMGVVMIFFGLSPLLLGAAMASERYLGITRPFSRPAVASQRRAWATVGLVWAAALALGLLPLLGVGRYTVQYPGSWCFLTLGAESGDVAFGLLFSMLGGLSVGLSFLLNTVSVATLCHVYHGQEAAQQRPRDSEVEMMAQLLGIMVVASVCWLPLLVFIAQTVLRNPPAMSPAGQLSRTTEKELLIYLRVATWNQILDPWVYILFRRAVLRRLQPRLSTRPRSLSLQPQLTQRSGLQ
Protocol: as §1, §2, §3, §4, §5, §6

hIP = target: T3, hIP (Homo sapiens, UniProt P43119); experiment: FLIPR calcium signal study, hIP; details: HEK-293(EBNA) cells expressing recombinant human receptor, read-out: HIP functional data
T3 construct: expressed in transfected cells; host or cells: HEK-293(EBNA)
Protocol: as §1, §2, §3, §4, §5
Compounds were tested in a high-throughput (HTS) or concentration-response (CoRe) format. […]

hFP = target: T4, hFP (Homo sapiens, UniProt P43088); experiment: FLIPR calcium signal study, hFP; details: HEK-293(EBNA) cells expressing recombinant human receptor, read-out: HFP functional data
T4 construct: expressed in transfected cells; host or cells: HEK-293(EBNA)
Protocol: as §1, §2, §3, §4, §5, §6

hEP3A/Gqi5 = target: T5, hEP3A/Gqi5 (Homo sapiens, UniProt P43115); experiment: FLIPR calcium signal study, hEP3A/Gqi5; details: HEK-293(EBNA) cells expressing recombinant human receptor, read-out: HEP3A functional data
T5 construct: expressed in transfected cells; host or cells: HEK-293(EBNA)
T5 sequence (P43115 1-390): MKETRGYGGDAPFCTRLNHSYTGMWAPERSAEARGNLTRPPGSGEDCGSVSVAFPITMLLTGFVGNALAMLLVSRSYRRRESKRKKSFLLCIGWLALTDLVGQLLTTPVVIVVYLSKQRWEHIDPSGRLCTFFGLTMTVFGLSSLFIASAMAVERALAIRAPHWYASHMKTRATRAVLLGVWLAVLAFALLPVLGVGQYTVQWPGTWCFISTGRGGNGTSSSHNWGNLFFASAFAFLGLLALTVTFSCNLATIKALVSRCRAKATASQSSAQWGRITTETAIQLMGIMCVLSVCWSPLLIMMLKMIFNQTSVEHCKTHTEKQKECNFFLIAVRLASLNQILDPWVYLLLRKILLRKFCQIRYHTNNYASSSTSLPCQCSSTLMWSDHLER
Protocol: as §1, §2, §3
Cells were seeded at a density of 5×10^4 cells per well in Biocoat® Poly-D-lysine-coated black-wall, clear-bottom 96-well plates (Becton-Dickinson) and allowed to attach overnight in an incubator at 37° C. Cells were then washed two times with HBSS-HEPES buffer (Hanks Balanced Salt Solution without bicarbonate and phenol red, 20 mM HEPES, pH 7.4) using a Denley Cellwash plate washer (Labsystems). […]
Cells were excited with an Argon laser at 488 nm, and emission was measured through a 510-570 nm bandwidth emission filter (FLIPR™, Molecular Devices, Sunnyvale, Calif.). […] The peak increase in fluorescence intensity was recorded for each well. […] The peak fluorescence change in each drug-containing well was then expressed relative to the controls. […]

T4 sequence (P43088 whole entry): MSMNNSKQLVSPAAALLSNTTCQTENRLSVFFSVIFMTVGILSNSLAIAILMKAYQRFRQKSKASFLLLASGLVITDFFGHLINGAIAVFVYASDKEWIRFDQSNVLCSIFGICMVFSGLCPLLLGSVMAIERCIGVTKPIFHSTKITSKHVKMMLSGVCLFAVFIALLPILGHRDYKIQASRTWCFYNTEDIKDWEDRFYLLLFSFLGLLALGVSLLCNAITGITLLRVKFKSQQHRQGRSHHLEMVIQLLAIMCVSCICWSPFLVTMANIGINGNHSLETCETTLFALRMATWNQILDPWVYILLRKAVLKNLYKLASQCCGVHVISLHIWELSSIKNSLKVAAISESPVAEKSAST
T1 sequence (P35408 whole entry): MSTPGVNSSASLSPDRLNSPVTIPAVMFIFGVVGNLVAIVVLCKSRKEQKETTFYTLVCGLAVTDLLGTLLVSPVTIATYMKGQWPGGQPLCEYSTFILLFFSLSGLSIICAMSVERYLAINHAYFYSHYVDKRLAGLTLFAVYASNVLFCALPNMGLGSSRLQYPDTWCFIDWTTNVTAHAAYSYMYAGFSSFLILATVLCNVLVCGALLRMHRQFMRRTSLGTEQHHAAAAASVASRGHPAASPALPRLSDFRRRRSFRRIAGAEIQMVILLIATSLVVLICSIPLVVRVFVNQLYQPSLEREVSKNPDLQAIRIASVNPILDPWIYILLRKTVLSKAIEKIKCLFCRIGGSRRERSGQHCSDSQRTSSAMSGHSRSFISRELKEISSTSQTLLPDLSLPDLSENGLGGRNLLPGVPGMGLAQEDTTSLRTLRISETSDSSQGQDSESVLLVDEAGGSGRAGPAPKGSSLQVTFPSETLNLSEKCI
T3 sequence (P43119 whole entry): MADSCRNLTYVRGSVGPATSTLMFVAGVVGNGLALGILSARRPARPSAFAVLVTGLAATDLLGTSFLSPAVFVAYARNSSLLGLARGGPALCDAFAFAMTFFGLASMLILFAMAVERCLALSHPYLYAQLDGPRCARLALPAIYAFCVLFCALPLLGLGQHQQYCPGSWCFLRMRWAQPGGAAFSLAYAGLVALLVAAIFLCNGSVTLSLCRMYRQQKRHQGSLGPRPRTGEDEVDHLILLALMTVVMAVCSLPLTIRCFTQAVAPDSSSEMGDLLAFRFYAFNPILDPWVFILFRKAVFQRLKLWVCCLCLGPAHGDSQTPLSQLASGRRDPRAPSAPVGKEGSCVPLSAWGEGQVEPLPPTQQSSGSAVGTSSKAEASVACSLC

| SMILES | EC50 (hEP4/Gqs5) [µM] | EC50 (hTP) [nM] | EC50 (hIP) [µM] | EC50 (hFP) [µM] | EC50 (hEP3A/Gqi5) [µM] |
| --- | --- | --- | --- | --- | --- |
| C=CC1CC(O)[C@H](C/C=C\CCCC(=O)NCCO)[C@H]1/C=C/[C@@H](O)CCc1cc(Br)c(C)s1 (stereo partly drawn) [Compound 12H, (Z)-7-{(1R,2S)-2-[(E)-(S)-5-(4-Bromo-5-methyl-thiophen-2-yl)-3-hydroxy-pent-1-enyl]-5-hydroxy-3-vinyl-cyclopentyl}-hept-5-enoic acid (2-hydroxy-ethyl)-amide] | > 10 | > 10000 | > 10 | > 10 | – |
| C=CC1CC(O)[C@H](C/C=C\CCCC(=O)NCCO)[C@H]1/C=C/[C@@H](O)CCc1cc(Br)c(C)s1 (stereo partly drawn) [Compound 12L, (Z)-7-{(1R,2S)-2-[(E)-(S)-5-(4-Bromo-5-methyl-thiophen-2-yl)-3-hydroxy-pent-1-enyl]-5-hydroxy-3-vinyl-cyclopentyl}-hept-5-enoic acid (2-hydroxy-ethyl)-amide] | – | > 10000 | > 10 | > 10 | – |
| C=CC1CC(O)[C@H](C/C=C\CCCC(N)=O)[C@H]1/C=C/[C@@H](O)CCc1cc(Br)c(C)s1 (stereo partly drawn) [Compound 13H, (Z)-7-{(1R,2S)-2-[(E)-(S)-5-(4-Bromo-5-methyl-thiophen-2-yl)-3-hydroxy-pent-1-enyl]-5-hydroxy-3-vinyl-cyclopentyl}-hept-5-enoic acid amide] | – | 2520 | > 10 | 0.584 | 7.08 |
| C=CC1CC(O)[C@H](C/C=C\CCCC(N)=O)[C@H]1/C=C/[C@@H](O)CCc1cc(Br)c(C)s1 (stereo partly drawn) [Compound 13L, (Z)-7-{(1R,2S)-2-[(E)-(S)-5-(4-Bromo-5-methyl-thiophen-2-yl)-3-hydroxy-pent-1-enyl]-5-hydroxy-3-vinyl-cyclopentyl}-hept-5-enoic acid amide] | > 10 | – | – | – | – |
| C=CC1CC(O)[C@H](C/C=C\CCCC(=O)NCC)[C@H]1/C=C/[C@@H](O)CCc1cc(Br)c(C)s1 (stereo partly drawn) [Compound 14H, (Z)-7-{(1R,2S)-2-[(E)-(S)-5-(4-Bromo-5-methyl-thiophen-2-yl)-3-hydroxy-pent-1-enyl]-5-hydroxy-3-vinyl-cyclopentyl}-hept-5-enoic acid ethylamide] | – | – | – | > 10 | – |
| CCNC(=O)CCC/C=C\C[C@H]1C(O)CC(C)[C@@H]1/C=C/[C@@H](O)CCc1cc(Br)c(C)s1 (stereo partly drawn) [Compound 15H, (Z)-7-{(1R,2R)-2-[(E)-(S)-5-(4-Bromo-5-methyl-thiophen-2-yl)-3-hydroxy-pent-1-enyl]-5-hydroxy-3-methyl-cyclopentyl}-hept-5-enoic acid ethylamide] | > 10 | > 10000 | – | > 10 | – |
| CCNC(=O)CCC/C=C\C[C@H]1C(O)CC(C)[C@@H]1/C=C/[C@@H](O)CCc1cc(Br)c(C)s1 (stereo partly drawn) [Compound 15L, (Z)-7-{(1R,2R)-2-[(E)-(S)-5-(4-Bromo-5-methyl-thiophen-2-yl)-3-hydroxy-pent-1-enyl]-5-hydroxy-3-methyl-cyclopentyl}-hept-5-enoic acid ethylamide] | > 10 | – | – | – | – |
| Cc1sc(CC[C@H](O)/C=C/[C@H]2C(C)CC(O)[C@@H]2C/C=C\CCCC(=O)NCCO)cc1Br (stereo partly drawn) [Compound 16H, (Z)-7-{(1R,2R)-2-[(E)-(S)-5-(4-Bromo-5-methyl-thiophen-2-yl)-3-hydroxy-pent-1-enyl]-5-hydroxy-3-methyl-cyclopentyl}-hept-5-enoic acid (2-hydroxy-ethyl)-amide] | – | 1380 | – | ≥ 10 | – |
| Cc1sc(CC[C@H](O)/C=C/[C@H]2C(C)CC(O)[C@@H]2C/C=C\CCCC(=O)NCCO)cc1Br (stereo partly drawn) [Compound 16L, (Z)-7-{(1R,2R)-2-[(E)-(S)-5-(4-Bromo-5-methyl-thiophen-2-yl)-3-hydroxy-pent-1-enyl]-5-hydroxy-3-methyl-cyclopentyl}-hept-5-enoic acid (2-hydroxy-ethyl)-amide] | > 10 | – | – | – | – |
| Cc1sc(CC[C@H](O)/C=C/[C@H]2C(C)CC(O)[C@@H]2C/C=C\CCCC(N)=O)cc1Br (stereo partly drawn) [Compound 17H, (Z)-7-{(1R,2R)-2-[(E)-(S)-5-(4-Bromo-5-methyl-thiophen-2-yl)-3-hydroxy-pent-1-enyl]-5-hydroxy-3-methyl-cyclopentyl}-hept-5-enoic acid amide] | > 10 | 1950 | – | ≥ 10 | – |
| Cc1sc(CC[C@H](O)/C=C/[C@H]2C(C)CC(O)[C@@H]2C/C=C\CCCC(N)=O)cc1Br (stereo partly drawn) [Compound 17L, (Z)-7-{(1R,2R)-2-[(E)-(S)-5-(4-Bromo-5-methyl-thiophen-2-yl)-3-hydroxy-pent-1-enyl]-5-hydroxy-3-methyl-cyclopentyl}-hept-5-enoic acid amide] | – | – | – | > 10 | – |
| CCC1CC(O)[C@H](C/C=C\CCCC(N)=O)[C@H]1/C=C/[C@@H](O)CCc1cc(Br)c(C)s1 (stereo partly drawn) [Compound 20H, (Z)-7-{(1R,2R)-2-[(E)-(S)-5-(4-Bromo-5-methyl-thiophen-2-yl)-3-hydroxy-pent-1-enyl]-3-ethyl-5-hydroxy-cyclopentyl}-hept-5-enoic acid amide] | – | > 10000 | – | 5.42 | > 10 |
| CCNC(=O)CCC/C=C\C[C@H]1C(O)CC[C@@H]1/C=C/[C@@H](O)CCc1cc(Br)c(C)s1 (stereo partly drawn) [Compound 21H, (Z)-7-{(1R,2R)-2-[(E)-(S)-5-(4-Bromo-5-methyl-thiophen-2-yl)-3-hydroxy-pent-1-enyl]-5-hydroxy-cyclopentyl}-hept-5-enoic acid ethylamide] | – | > 10000 | – | > 10 | – |
| Cc1sc(CC[C@H](O)/C=C/[C@H]2CCC(O)[C@@H]2C/C=C\CCCC(=O)NCCO)cc1Br (stereo partly drawn) [Compound 22H, (Z)-7-{(1R,2R)-2-[(E)-(S)-5-(4-Bromo-5-methyl-thiophen-2-yl)-3-hydroxy-pent-1-enyl]-5-hydroxy-cyclopentyl}-hept-5-enoic acid (2-hydroxy-ethyl)-amide] | – | > 10000 | – | > 10 | – |
| Cc1sc(CC[C@H](O)/C=C/[C@H]2CCC(O)[C@@H]2C/C=C\CCCC(N)=O)cc1Br (stereo partly drawn) [Compound 23H, (Z)-7-{(1R,2R)-2-[(E)-(S)-5-(4-Bromo-5-methyl-thiophen-2-yl)-3-hydroxy-pent-1-enyl]-5-hydroxy-cyclopentyl}-hept-5-enoic acid amide] | – | 2130 | – | > 10 | – |
| CCNC(=O)CCC/C=C\C[C@@H]1[C@@H](/C=C/[C@@H](O)CCc2cc(Br)c(C)s2)[C@H](O)C[C@@H]1O [Control, reference compound] | – | – | – | 2.14 | – |
